The text below walks through data of publication PMC8524670 (Pharmacology Research & Perspectives, 2021).

Each structure is given as a SMILES string.

The conditions of series [1]: cited from earlier work.
The target in series [2] is T1, OAT1 (Homo sapiens, UniProt Q4U2R8).
T1 sequence (Q4U2R8 1-563): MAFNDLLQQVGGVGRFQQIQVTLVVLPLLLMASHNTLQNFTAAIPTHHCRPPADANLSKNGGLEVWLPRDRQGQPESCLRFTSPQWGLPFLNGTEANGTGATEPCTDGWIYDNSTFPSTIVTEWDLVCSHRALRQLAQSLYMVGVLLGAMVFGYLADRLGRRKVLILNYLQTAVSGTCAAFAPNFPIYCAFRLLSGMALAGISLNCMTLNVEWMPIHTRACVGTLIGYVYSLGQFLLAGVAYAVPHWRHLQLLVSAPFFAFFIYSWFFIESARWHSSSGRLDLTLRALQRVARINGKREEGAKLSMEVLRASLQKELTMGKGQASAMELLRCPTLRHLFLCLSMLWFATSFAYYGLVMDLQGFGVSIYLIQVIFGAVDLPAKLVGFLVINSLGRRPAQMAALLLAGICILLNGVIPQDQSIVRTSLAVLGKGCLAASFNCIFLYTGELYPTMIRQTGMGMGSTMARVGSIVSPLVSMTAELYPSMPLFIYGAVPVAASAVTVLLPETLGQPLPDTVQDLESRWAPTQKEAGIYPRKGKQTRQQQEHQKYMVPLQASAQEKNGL
Nature of the series: SLC transportation assay in HEK293 cells. Particulars: uptake ratios <2 at 0.1, 0.3, 5 µM.

In series [3] the target is T2, human BCRP (Homo sapiens, UniProt Q9UNQ0).
T2 sequence (Q9UNQ0 1-655): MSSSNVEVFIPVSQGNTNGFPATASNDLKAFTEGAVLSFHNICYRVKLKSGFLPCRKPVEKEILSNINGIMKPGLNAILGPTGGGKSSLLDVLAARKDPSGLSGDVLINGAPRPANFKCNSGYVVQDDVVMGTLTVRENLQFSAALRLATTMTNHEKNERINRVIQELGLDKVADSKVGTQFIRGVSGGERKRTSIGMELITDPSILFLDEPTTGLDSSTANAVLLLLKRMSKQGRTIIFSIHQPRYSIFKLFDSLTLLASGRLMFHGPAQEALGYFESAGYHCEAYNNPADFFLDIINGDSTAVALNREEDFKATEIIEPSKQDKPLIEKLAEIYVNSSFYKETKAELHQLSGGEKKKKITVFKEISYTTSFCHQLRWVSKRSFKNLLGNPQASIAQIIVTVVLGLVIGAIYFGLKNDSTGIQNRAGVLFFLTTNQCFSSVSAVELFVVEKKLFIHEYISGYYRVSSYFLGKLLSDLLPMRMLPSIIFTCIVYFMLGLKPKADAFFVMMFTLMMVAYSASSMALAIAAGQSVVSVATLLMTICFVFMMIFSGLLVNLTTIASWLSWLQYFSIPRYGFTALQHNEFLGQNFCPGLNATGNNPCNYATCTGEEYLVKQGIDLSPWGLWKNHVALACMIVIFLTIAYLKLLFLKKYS
In words: BCRP transportation in inside-out vesicles. Format: in vitro ADME. Particulars: uptake ratio ≥2-fold indicates substrate.

In series [4] the test system is BCRP. Particulars: coadministration of zanubrutinib; cited from earlier work.
The subject of series [5] is CYP2C9. Particulars: coadministration of zanubrutinib; cited from earlier work.
For series [6], the target named is CYP2C19 (Homo sapiens, UniProt P33261). In words: Time-dependent CYP inhibition in HLMs. Particulars: 10 µM zanubrutinib, 30 min pre-incubation with HLMs and NADPH.
Sequence of CYP2C19 (Homo sapiens, UniProt P33261) (P33261 whole entry): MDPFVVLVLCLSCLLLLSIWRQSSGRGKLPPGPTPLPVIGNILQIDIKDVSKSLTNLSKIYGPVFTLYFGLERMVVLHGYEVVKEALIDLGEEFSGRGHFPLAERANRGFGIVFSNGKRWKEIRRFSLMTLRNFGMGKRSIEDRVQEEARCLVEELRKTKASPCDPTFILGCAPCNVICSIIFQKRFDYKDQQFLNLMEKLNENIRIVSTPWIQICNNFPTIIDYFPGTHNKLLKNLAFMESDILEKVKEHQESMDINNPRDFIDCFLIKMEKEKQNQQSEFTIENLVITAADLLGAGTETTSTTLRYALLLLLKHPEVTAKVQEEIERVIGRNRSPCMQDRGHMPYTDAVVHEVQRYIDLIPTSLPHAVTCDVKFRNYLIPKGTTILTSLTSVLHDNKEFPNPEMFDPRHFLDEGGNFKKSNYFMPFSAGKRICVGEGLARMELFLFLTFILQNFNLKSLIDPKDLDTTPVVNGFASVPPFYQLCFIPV
Series [7] relates to CYP2C19. Particulars: coadministration of zanubrutinib; cited from earlier work.
Series [8] deals with CYP3A4. Particulars: coadministration of zanubrutinib; cited from earlier work.
The test system of series [9] is CYP1A2. Particulars: DDI basic model value for induction.
The target of series [10] is T3, CYP2C8 (Homo sapiens, UniProt P10632).
T3 sequence (P10632 1-490): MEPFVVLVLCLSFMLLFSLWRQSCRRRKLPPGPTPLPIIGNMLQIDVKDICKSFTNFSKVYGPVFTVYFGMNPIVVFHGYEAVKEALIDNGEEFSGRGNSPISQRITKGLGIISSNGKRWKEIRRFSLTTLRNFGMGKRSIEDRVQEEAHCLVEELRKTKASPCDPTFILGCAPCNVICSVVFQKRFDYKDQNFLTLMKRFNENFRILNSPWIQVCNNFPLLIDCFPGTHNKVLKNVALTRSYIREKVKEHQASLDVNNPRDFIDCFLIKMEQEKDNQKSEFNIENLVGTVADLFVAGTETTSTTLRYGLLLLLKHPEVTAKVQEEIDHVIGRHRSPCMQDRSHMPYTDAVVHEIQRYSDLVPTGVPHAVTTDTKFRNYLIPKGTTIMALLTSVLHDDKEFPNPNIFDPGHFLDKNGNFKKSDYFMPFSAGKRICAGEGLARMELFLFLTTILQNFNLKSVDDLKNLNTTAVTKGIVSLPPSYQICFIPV
Nature of the series: CYP reversible inhibition in HLMs. Particulars: amodiaquine.

The target of series [11] is T4, CYP1A2 (Homo sapiens, UniProt P05177).
T4 sequence (P05177 1-516): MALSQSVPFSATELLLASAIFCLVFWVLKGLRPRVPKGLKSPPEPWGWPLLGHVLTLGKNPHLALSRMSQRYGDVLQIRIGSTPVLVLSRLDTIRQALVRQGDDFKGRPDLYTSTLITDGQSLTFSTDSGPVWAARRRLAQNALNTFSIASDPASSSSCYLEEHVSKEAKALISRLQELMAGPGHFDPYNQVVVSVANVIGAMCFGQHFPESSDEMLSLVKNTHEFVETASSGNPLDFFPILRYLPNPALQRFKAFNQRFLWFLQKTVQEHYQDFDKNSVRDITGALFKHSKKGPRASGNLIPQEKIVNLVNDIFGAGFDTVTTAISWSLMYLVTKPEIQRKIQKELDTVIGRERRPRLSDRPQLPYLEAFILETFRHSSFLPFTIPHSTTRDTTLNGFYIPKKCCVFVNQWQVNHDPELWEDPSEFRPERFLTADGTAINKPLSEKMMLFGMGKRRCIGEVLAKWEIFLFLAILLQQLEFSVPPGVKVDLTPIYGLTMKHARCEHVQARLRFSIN
Nature of the series: biochemical. It is filed as in vitro ADME.

Series [12] can be described thus: In vitro metabolism in liver microsomes. It is filed as in vitro ADME. Particulars: 10 μM, 60-min incubation with NADPH and UDPGA; 11 metabolites (M1–M11). (In general: Microsomes from liver hold many membrane-bound enzymes, among them those of drug oxidation.)

What is called IC50 is the concentration that gives 50% inhibition. Low values mean inhibition by little substance, high ones a need for much substance. The Ki is the dissociation constant of the complex between target and ligand, obtained from inhibition or displacement. A low value points to higher affinity.

For the molecule `C=CC(=O)N1CCC([C@@H]2CCNc3c(C(N)=O)c(-c4ccc(Oc5ccccc5)cc4)nn32)CC1` [zanubrutinib], the “C max (mean steady‐state concentration)” value in series [1] (160 mg BID, dose-escalation study, ref data on file) is 338 ng/mL. Moreover, the “ka (first‐order absorption rate constant)” value in [1] (estimated from population PK) is 0.526. Further, in [2], the Substrate status result is listed as “unlikely to be a substrate”. In addition, in [3], the BCRP substrate status result is “unlikely to be a substrate”. Moreover, in [4], the “Effect on exposure of BCRP probe rosuvastatin” value was “did not significantly affect the exposure”. In addition, the “Effect on the clinical PK of warfarin” value in series [5] is recorded as “no remarkable effect”. Besides, in series [6], the “Percent loss of enzymatic activity” value was −4.58%. In addition, in series [7], the “Reduction of AUC of CYP2C19 probe omeprazole” value was 36.5%. In series [8], the “Reduction of AUC of CYP3A probe midazolam” value is listed as 47.5%. Further, in [9], the “R 3” value amounted to 0.37. Besides, the R1 came out at 1.05 in [10] (DDI basic model, hepatic) and 1.00 in series [11] (phenacetin, DDI basic model, hepatic). In addition, the Ah in series [10] (static model term, liver inhibition) amounted to 0.95; in [11] (phenacetin, static model term, liver inhibition), 1.00. Moreover, half-maximal inhibition in series [11] (IC50) was put at 121 µM. Besides, the Ki in [11] (Ki, phenacetin, Ki = IC50/2) was determined as 60.5 µM; in [11] (Kiu, phenacetin, unbound Ki) it was 47.8 µM. For the same molecule, the “Metabolism in liver microsomes” value in [12] was “extensively metabolized”.
